Four molecules from DBAASP can be followed below.

Some test systems named below: Yersinia ruckeri VI-3629; Escherichia coli AB94012; Escherichia coli D31; Listeria grayi DSM 20601; Bacillus cereus; Escherichia coli; Leuconostoc lactis; Listeria innocua; Micrococcus luteus; Pasteurella multocida; Staphylococcus aureus; Streptococcus uberis.
Holding throughout (test): ≥ marks a high value that may be exact or a test limit, other limits are often not marked, values filed in µg/mL are converted to µM
Experiment [1] has as its system Aeromonas salmonicida NCIMB 1102.
In experiment [2] the test system is Corynebacterium glutamicum ATCC 13032.
In experiment [3] the test system is Escherichia coli ATCC 25922.
For experiment [4], the system named is Micrococcus luteus ATCC 4698.
Experiment [5] concerns Planococcus citreus NCIMB 1493.
In experiment [6] the test system is Psychrobacter immobilis NCIMB 308.
Experiment [7] deals with Staphylococcus aureus ATCC 9144.
The subject of experiment [8] is Vibrio anguillarum NCIMB 2129.
The test system of experiment [9] is Vibrio anguillarum NCIMB 2133.
Experiment [10] concerns Vibrio anguillarum VI-F258-3.
Experiment [11] has as its system Yersinia ruckeri NCIMB 2196.
Experiment [12] concerns Bacillus subtilis AB91021.
Experiment [13] concerns Bacillus thuringiensis AB92037.
The subject of experiment [14] is Listeria fleischmannii DSM 24998.
Experiment [15] has as its system Listeria monocytogenes DSM 20600.
Experiment [16] deals with Micrococcus luteus AB93113.
Experiment [17] concerns Micrococcus luteus DSM 20030.
In experiment [18] the test system is Pseudomonas aeruginosa AB93066.
Experiment [19] relates to Staphylococcus aureus AB94004.
For experiment [20], the system named is Staphylococcus aureus DSM 2569.
Experiment [21] has as its system Staphylococcus aureus P1369.
In experiment [22] the test system is Staphylococcus aureus P1374.
Experiment [23] has as its system Staphylococcus aureus P1381.
Experiment [24] relates to Staphylococcus aureus P1383.
For experiment [25], the system named is Staphylococcus aureus P1386.
Experiment [26] has as its system Staphylococcus epidermidis P1111.
For experiment [27], the system named is Staphylococcus epidermidis P1389.
The test system of experiment [28] is Batrachochytrium dendrobatidis.
The test system of experiment [29] is Staphylococcus epidermidis.
Experiment [30] deals with Klebsiella pneumoniae ATCC 13883.
The subject of experiment [31] is Listeria monocytogenes ATCC 19115.
The test system of experiment [32] is Salmonella enterica subsp. enterica serovar Typhimurium ATCC 14028.
The subject of experiment [33] is Salmonella enterica subsp. enterica serovar Typhimurium ATCC 700408.
Experiment [34] relates to Staphylococcus aureus ATCC 25923.
The subject of experiment [35] is Staphylococcus aureus ATCC 43300.
Experiment [36] concerns Staphylococcus aureus ATCC BAA-39.

Molecules are shown by their SMILES. Converted amounts (≈) assume the structure as drawn.

As for `CC[C@H](C)[C@H](NC(=O)[C@H](CC(C)C)NC(=O)CNC(=O)[C@@H](NC(=O)[C@@H](NC(=O)[C@H](Cc1cnc[nH]1)NC(=O)[C@H](Cc1cnc[nH]1)NC(=O)[C@H](CC(C)C)NC(=O)[C@@H](N)Cc1ccccc1)[C@@H](C)CC)C(C)C)C(=O)N[C@@H](Cc1cnc[nH]1)C(=O)N[C@@H](Cc1cnc[nH]1)C(=O)NCC(=O)N[C@@H](CC(C)C)C(=O)N[C@@H](CO)C(=O)N[C@@H](CC(C)C)C(=O)N[C@@H](Cc1ccccc1)C(=O)NCC(=O)N[C@@H](CC(=O)O)C(=O)N[C@@H](CCCN=C(N)N)C(=O)N[C@@H](C)C(=O)N[C@@H](CC(=O)O)C(=O)O` [FLHHIVGLIHHGLSLFGDRAD], the MIC in experiment [1] was 10 µM (≈ 23.5 µg/mL); in [2], 10 µM (≈ 23.5 µg/mL); in [3], more than 10 µM; in [4] it was 10 µM (≈ 23.5 µg/mL); in experiment [5], 10 µM (≈ 23.5 µg/mL); in [6] it was 3.54 µM (≈ 8.33 µg/mL). Moreover, the MIC in experiment [7] came to 10 µM (≈ 23.5 µg/mL); in [8] it was 10 µM (≈ 23.5 µg/mL); in [9] it was 10 µM (≈ 23.5 µg/mL); in [10], 10 µM (≈ 23.5 µg/mL); in [11], 3.54 µM (≈ 8.33 µg/mL); with Yersinia ruckeri VI-3629, 10 µM (≈ 23.5 µg/mL).

`CC[C@H](C)[C@H](NC(=O)[C@H](C)NC(=O)[C@H](CO)NC(=O)[C@H](CCCCN)NC(=O)[C@@H](NC(=O)CNC(=O)[C@H](CCC(=O)O)NC(=O)[C@H](Cc1c[nH]c2ccccc12)NC(=O)[C@H](CC(C)C)NC(=O)[C@H](CCCCN)NC(=O)CNC(=O)[C@H](Cc1c[nH]c2ccccc12)NC(=O)[C@H](Cc1ccccc1)NC(=O)CN)C(C)C)C(N)=O` [GFWGKLWEGVKSAI]: the MIC in experiment [12] was 15.8 µM (≈ 25 µg/mL); in experiment [13], 31.7 µM (≈ 50 µg/mL); against Escherichia coli AB94012, 31.7 µM (≈ 50 µg/mL); against Escherichia coli D31, 15 µM (≈ 23.7 µg/mL); in experiment [14], 4 µM (≈ 6.31 µg/mL); in the experiment with Listeria grayi DSM 20601 it was 4 µM (≈ 6.31 µg/mL). Further, the MIC is 8 µM (≈ 12.6 µg/mL) in experiment [15]; 15.8 µM (≈ 25 µg/mL) in [16]; 2 µM (≈ 3.15 µg/mL) in experiment [17]; not below 63.4 µM in [18]; 3.96 µM (≈ 6.25 µg/mL) in [19]; 15 µM (≈ 23.7 µg/mL) in experiment [20]. Moreover, the MIC stood at 3.96 µM (≈ 6.25 µg/mL) in experiment [21]; 3.96 µM (≈ 6.25 µg/mL) in [22]; 15.8 µM (≈ 25 µg/mL) in experiment [23]; 7.92 µM (≈ 12.5 µg/mL) in [24]; 7.92 µM (≈ 12.5 µg/mL) in experiment [25]; 3.96 µM (≈ 6.25 µg/mL) in experiment [26]. In experiment [27], this molecule gave an MIC of 7.92 µM (≈ 12.5 µg/mL).

For `CC[C@H](C)[C@H](NC(=O)CNC(=O)[C@H](CCC(=O)O)NC(=O)[C@@H](NC(=O)[C@@H](NC(=O)CNC(=O)[C@H](CO)NC(=O)[C@H](C)NC(=O)[C@H](CC(C)C)NC(=O)[C@H](CC(=O)O)NC(=O)CNC(=O)[C@H](C)NC(=O)[C@H](C)NC(=O)[C@H](CO)NC(=O)[C@H](CCCCN)NC(=O)[C@@H](NC(=O)[C@H](CCCCN)NC(=O)[C@H](CCC(N)=O)NC(=O)[C@H](Cc1c[nH]c2ccccc12)NC(=O)[C@H](CC(C)C)NC(=O)CN)[C@@H](C)CC)[C@@H](C)CC)C(C)C)C(=O)N[C@@H](CCCCN)C(=O)N[C@@H](CO)C(N)=O` [GLWQKIKSAAGDLASGIVEGIKS], the minimum inhibitory concentration (MIC) against Bacillus cereus is not below 42.9 µM; in [28], not below 200 µM; against Escherichia coli it was 10.7 µM (≈ 25 µg/mL); against Leuconostoc lactis, not below 42.9 µM; against Listeria innocua it was not below 42.9 µM; with Micrococcus luteus it was 5.15 µM (≈ 12 µg/mL). Besides, the MIC against Pasteurella multocida is not below 42.9 µM; against Staphylococcus aureus, more than 42.9 µM; in experiment [29], not below 42.9 µM; in the experiment on Streptococcus uberis it was not below 42.9 µM.

In the case of `CC(C)C[C@H](NC(=O)[C@H](CCCN=C(N)N)NC(=O)CNC(=O)[C@H](CCC(N)=O)NC(=O)[C@@H]1CCCN1C(=O)[C@H](CC(C)C)NC(=O)[C@H](CCCCN)NC(=O)[C@H](Cc1ccccc1)NC(=O)[C@@H](NC(=O)[C@@H]1CCCN1C(=O)[C@H](CCC(N)=O)NC(=O)[C@H](CO)NC(=O)[C@H](Cc1ccccc1)NC(=O)[C@H](CCCN=C(N)N)NC(=O)[C@@H](N)CCC(N)=O)[C@@H](C)O)C(=O)N[C@H](C(=O)N[C@@H](CC(C)C)C(=O)N[C@@H](CO)C(=O)N[C@@H](CCCN=C(N)N)C(=O)N[C@@H](CCCCN)C(=O)N[C@@H](Cc1ccccc1)C(=O)N[C@@H](CCCN=C(N)N)C(=O)O)[C@@H](C)O` [QRFSQPTFKLPQGRLTLSRKFR], the MIC is 9.29 µM (≈ 25 µg/mL) in experiment [3]; 9.29 µM (≈ 25 µg/mL) in experiment [30]; 9.29 µM (≈ 25 µg/mL) in [31]; 9.29 µM (≈ 25 µg/mL) in experiment [32]; 9.29 µM (≈ 25 µg/mL) in experiment [33]; 37.1 µM (≈ 100 µg/mL) in experiment [34]. Besides, the values for the MIC in [35] and in experiment [36] were 37.1 µM (≈ 100 µg/mL) and not below 37.1 µM, respectively.
